Measurements: ChEMBL document CHEMBL3108714, “Bisphenol A binds to Ras proteins and competes with guanine nucleotide exchange: implications for GTPase-selective antagonists” (J Med Chem, 2013)
Active and inactive are the calls of the source. The rule behind the calls is not given here.

What was measured:
[1] = target: T1, GTP-binding protein Rheb (Homo sapiens, UniProt Q15382); assay: Inhibition of RHEB in human HeLa cells assessed as decrease in phospho-S6 protein level at 100 uM after 4 hrs by Western blotting analysis; type: cell-based
T1 sequence (Q15382 whole entry): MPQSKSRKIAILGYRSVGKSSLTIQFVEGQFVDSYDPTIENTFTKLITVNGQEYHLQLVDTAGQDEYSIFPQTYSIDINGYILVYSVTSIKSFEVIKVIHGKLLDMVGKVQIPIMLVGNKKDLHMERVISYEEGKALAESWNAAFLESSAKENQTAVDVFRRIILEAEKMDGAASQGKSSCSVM

[2] = test system: HeLa; assay: Induction of apoptosis in human HeLa cells assessed as increase in cellular degeneration at 25 to 250 uM after 4 hrs by MTT assay; type: functional, cell-based
[3] = target: GTPase KRas (Homo sapiens, UniProt P01116); assay: Binding affinity to human K-RAS by NMR analysis
[4] = target: T1, GTP-binding protein Rheb; assay: Binding affinity to full-length Rheb (unknown origin) by NMR spectroscopic analysis
[5] = test system: HeLa; assay: Induction of apoptosis in human HeLa cells assessed as increase in cellular degeneration at >100 uM after 24 hrs by DAPI-staining-based microscopic analysis; type: functional, cell-based

| Compound | inhibition [1] | Activity [2] | inhibition [3] | Kd [4] [µM] | Activity [5] | Kd [3] [µM] |
| --- | --- | --- | --- | --- | --- | --- |
| Oc1ccc(-c2ccc(O)cc2)cc1 | Active | Active | inactive | 1500 | – | – |
| CC(C)(c1ccc(O)cc1)c1ccc(O)cc1 [BISPHENOL A] | inactive | – | – | 1800 | Active | 600 |
